Like-named read-outs stand apart in the source and are kept apart here. Marks after values point to notes of the source that are not given here.
Key:
[1] = test system: Salmonella typhimurium TA102; assay: Ames test, antimutagenicity assay, TA102; assay type: cell-based
[2] = test system: Salmonella typhimurium TA100
[3] = test system: Salmonella typhimurium TA102
[4] = test system: Salmonella typhimurium TA97a; conditions: TA 97a
epimastigote forms = conditions: compared with benznidazole; cited from earlier work
rat peripheral blood = test system: rat peripheral blood; set-up: method as in PMID 17141387; conditions: cited from earlier work
[5] = test system: Chinese hamster lung fibroblast V79 cells; set-up: method as in PMID 20452459; conditions: cited from earlier work
[6] = TA 102, + S9, HK 19.5 μg/plate + 2-AF 10.0 μg/plate
[7] = TA 102, + S9, HK 39.0 μg/plate + 2-AF 10.0 μg/plate
[8] = TA 102, + S9, HK 58.5 μg/plate + 2-AF 10.0 μg/plate
[9] = TA 102, + S9, HK 78.0 μg/plate + 2-AF 10.0 μg/plate
[10] = TA 102, - S9, HK 58.5 μg/plate + MMC 0.5 μg/plate
[11] = TA 102, - S9, HK 78.0 μg/plate + MMC 0.5 μg/plate

SMILES: O=C1OC[C@H](Cc2ccc3c(c2)OCO3)[C@H]1Cc1ccc2c(c1)OCO2 [HK, (−)-hinokinin]
- Number of revertants(M ± SD)/ plate [1]: 852 + 21 revertants/plate
- % inhibition [1, 6]: 42*** %
- Number of revertants(M ± SD)/ plate [1, 6]: 855 + 22 revertants/plate
- % inhibition [1, 7]: 46*** %
- Number of revertants(M ± SD)/ plate [1, 7]: 820 + 19 revertants/plate
- % inhibition [1, 8]: 52*** %
- Number of revertants(M ± SD)/ plate [1, 8]: 754 + 9 revertants/plate
- % inhibition [1, 9]: 52*** %
- Number of revertants(M ± SD)/ plate [1, 9]: 757 + 29 revertants/plate
- % inhibition ([1]; TA 102, + S9, HK […] + 2-AF 10.0 μg/plate): 42*** %
- decrease in the mutagenicity of 2-AF ([1]; TA102, +S9, dose not given): 52%
- Number of revertants(M ± SD)/ plate ([1]; TA 102, - S9, HK 19.5 μg/plate + MMC 0.5 μg/plate): 1201 + 23 revertants/plate
- Number of revertants(M ± SD)/ plate ([1]; TA 102, - S9, HK 39.0 μg/plate + MMC 0.5 μg/plate): 1317 + 14 revertants/plate
- % inhibition [1, 10]: 18* %
- Number of revertants(M ± SD)/ plate [1, 10]: 1017 + 56 revertants/plate
- % inhibition [1, 11]: 22* %
- Number of revertants(M ± SD)/ plate [1, 11]: 979 + 51 revertants/plate
- Number of revertants(M ± SD)/ plate ([1]; TA 102, - S9, HK […] + MMC 0.5 μg/plate): 1236 + 17 revertants/plate
- effect on mutagenesis induced by MMC ([1]; TA102, absence of metabolic activation): did not reduce mutagenesis
- MI (mutagenicity index) ([2]; TA 100, + S9, HK 19.5 μg/plate): 1.0
- Number of revertants(M ± SD)/ plate ([2]; TA 100, + S9, HK 19.5 μg/plate): 128 ± 6 revertants/plate
- MI (mutagenicity index) ([2]; TA 100, + S9, HK 39.0 μg/plate): 0.9
- Number of revertants(M ± SD)/ plate ([2]; TA 100, + S9, HK 39.0 μg/plate): 115 ± 8 revertants/plate
- MI (mutagenicity index) ([2]; TA 100, + S9, HK 58.5 μg/plate): 1.1
- Number of revertants(M ± SD)/ plate ([2]; TA 100, + S9, HK 58.5 μg/plate): 134 ± 2 revertants/plate
- MI (mutagenicity index) ([2]; TA 100, + S9, HK 78.0 μg/plate): 1.0
- Number of revertants(M ± SD)/ plate ([2]; TA 100, + S9, HK 78.0 μg/plate): 120 ± 8 revertants/plate
- MI (mutagenicity index) ([2]; TA 100, - S9, HK 19.5 μg/plate): 1.0
- Number of revertants(M ± SD)/ plate ([2]; TA 100, - S9, HK 19.5 μg/plate): 129 ± 6 revertants/plate
- MI (mutagenicity index) ([2]; TA 100, - S9, HK 39.0 μg/plate): 1.0
- Number of revertants(M ± SD)/ plate ([2]; TA 100, - S9, HK 39.0 μg/plate): 134 ± 5 revertants/plate
- MI (mutagenicity index) ([2]; TA 100, - S9, HK 58.5 μg/plate): 0.8
- Number of revertants(M ± SD)/ plate ([2]; TA 100, - S9, HK 58.5 μg/plate): 112 ± 3 revertants/plate
- MI (mutagenicity index) ([2]; TA 100, - S9, HK 78.0 μg/plate): 1.1
- Number of revertants(M ± SD)/ plate ([2]; TA 100, - S9, HK 78.0 μg/plate): 140 ± 9 revertants/plate
- Number of revertants(M ± SD)/ plate ([3]; TA 102, + S9, HK 19.5 μg/plate): 363 ± 3 revertants/plate
- MI (mutagenicity index) ([3]; TA 102, + S9, HK 39.0 μg/plate): 0.9
- Number of revertants(M ± SD)/ plate ([3]; TA 102, + S9, HK 39.0 μg/plate): 354 ± 4 revertants/plate
- MI (mutagenicity index) ([3]; TA 102, + S9, HK 58.5 μg/plate): 1.0
- Number of revertants(M ± SD)/ plate ([3]; TA 102, + S9, HK 58.5 μg/plate): 398 ± 9 revertants/plate
- MI (mutagenicity index) ([3]; TA 102, + S9, HK 78.0 μg/plate): 1.0
- Number of revertants(M ± SD)/ plate ([3]; TA 102, + S9, HK 78.0 μg/plate): 402 ± 3 revertants/plate
- Number of revertants(M ± SD)/ plate ([3]; TA 102, - S9, HK 19.5 μg/plate): 231 ± 8 revertants/plate
- MI (mutagenicity index) ([3]; TA 102, - S9, HK 39.0 μg/plate): 0.9
- Number of revertants(M ± SD)/ plate ([3]; TA 102, - S9, HK 39.0 μg/plate): 213 ± 4 revertants/plate
- MI (mutagenicity index) ([3]; TA 102, - S9, HK 58.5 μg/plate): 0.8
- Number of revertants(M ± SD)/ plate ([3]; TA 102, - S9, HK 58.5 μg/plate): 201 ± 6 revertants/plate
- MI (mutagenicity index) ([3]; TA 102, - S9, HK 78.0 μg/plate): 0.8
- Number of revertants(M ± SD)/ plate ([3]; TA 102, - S9, HK 78.0 μg/plate): 186 ± 2 revertants/plate
- MI (mutagenicity index) ([4]; + S9, HK 19.5 μg/plate): 1.1
- Number of revertants(M ± SD)/ plate ([4]; + S9, HK 19.5 μg/plate): 187 ± 3 revertants/plate
- MI (mutagenicity index) ([4]; + S9, HK 39.0 μg/plate): 1.0
- Number of revertants(M ± SD)/ plate ([4]; + S9, HK 39.0 μg/plate): 166 ± 5 revertants/plate
- MI (mutagenicity index) ([4]; + S9, HK 58.5 μg/plate): 1.0
- Number of revertants(M ± SD)/ plate ([4]; + S9, HK 58.5 μg/plate): 172 ± 2 revertants/plate
- MI (mutagenicity index) ([4]; + S9, HK 78.0 μg/plate): 0.9
- Number of revertants(M ± SD)/ plate ([4]; + S9, HK 78.0 μg/plate): 146 ± 4 revertants/plate
- MI (mutagenicity index) ([4]; - S9, HK 39.0 μg/plate): 0.9
- Number of revertants(M ± SD)/ plate ([4]; - S9, HK 39.0 μg/plate): 146 ± 5 revertants/plate
- MI (mutagenicity index) ([4]; - S9, HK 58.5 μg/plate): 1.1
- Number of revertants(M ± SD)/ plate ([4]; - S9, HK 58.5 μg/plate): 175 ± 4 revertants/plate
- MI (mutagenicity index) ([4]; - S9, HK 78.0 μg/plate): 1.0
- Number of revertants(M ± SD)/ plate ([4]; - S9, HK 78.0 μg/plate): 163 ± 8 revertants/plate
- trypanosomicidal activity against epimastigote forms (epimastigote forms): higher trypanosomicidal activity than benznidazole
- effect on chromosome damage induced by DXR, micronucleus test (rat peripheral blood): effective in reducing the chromosome damage induced by DXR
- genotoxic effect, micronucleus test (rat peripheral blood): no genotoxic effect
- genotoxic effect, micronucleus test ([5]; HK alone): no genotoxic effect
- effect on chromosome damage caused by MMS, micronucleus test [5]: reduced the chromosome damage caused by MMS
- effect on DXR-induced clastogenicity, micronucleus test ([5]; higher concentrations of HK): potentiator of DXR-induced clastogenicity
- effect on DXR-induced clastogenicity, micronucleus test ([5]; lower concentrations of HK): reduction in DXR-induced clastogenicity

— PMC3545969, “Mutagenicity and antimutagenicity of (−)-hinokinin a trypanosomicidal compound measured by Salmonella microsome and comet assays” (BMC Complementary and Alternative Medicine, 2012)
